Data set [1] can be described thus: oral bioavailability of phosphate prodrug versus active drug. It is filed as in vivo. To be noted: prodrug with progroup —CH2—O—P(O)(OH)2 compared with Compound 1.
Data set [2] in a line: water solubility in aqueous buffer under physiological conditions. Conditions: for solubility: aqueous buffer.

SMILES strings stand for the structures. In brackets after ≈: the same amount, converted by molar mass.

As usually defined, the solubility is the concentration that dissolves in the medium under given conditions. High values mean much dissolved substance, low ones little dissolved substance.

Take `COc1cc(Nc2ncc(F)c(Nc3ccc4c(n3)N(COP(=O)(O)O)C(=O)C(C)(C)O4)n2)cc(OC)c1OC` [Compound 4]: the oral bioavailability result in data set [1] is given as “increased dramatically”. The solubility in data set [2] is above 5000 µg/mL. Further, the “solubility relative to active drug (Compound 1)” value in data set [2] (aqueous buffer under physiological conditions, prodrug vs Compound 1) was “approximately 2000 times greater”.

As for `COc1cc(Nc2ncc(F)c(Nc3ccc4c(n3)NC(=O)C(C)(C)O4)n2)cc(OC)c1OC` [Compound 1, N4-(2,2-Dimethyl-3-oxo-4H-5-pyrid[1,4]oxazin-6-yl)-5-fluoro-N2-(3,4,5-trimethoxyphenyl)-2,4-pyrimidinediamine], the solubility in data set [2] lay in the range of 1 to 2 µg/mL (≈ 2.13 to 4.25 µM).

Source of the values: patent publication US20260199364A1, “USE OF A SYK INHIBITOR FOR THE TREATMENT OF SICKLE CELL DISEASE” (Rigel Pharmaceuticals, Inc., priority 2023, published 2026).
